# Measurements as given in patent US10478435B2, “Use of CRAC channel inhibitors for the treatment of stroke and traumatic brain injury” (CalciMedica, Inc., priority 2015, dated 2019).
# System: BV2 cells
# Test: Intracellular calcium accumulation in BV2 cells by live fluorescence microscopy with a calcium fluorescent probe
# Format: cell-based
# Conditions: Compound at 10 uM, FIG. 7
# Method: Described herein, in some embodiments CRAC channel inhibitors are neuroprotectants in brain ischemia and related conditions. A neuron cell line (Neuro-2A, N-2A) was either cultured alone or in co-culture with microglial BV2 cells. Cells were exposed to a cycle of 2 h oxygen glucose deprivation (OGD) plus 22 h reoxygenation in the absence or presence of inhibitor (concentrations 1-50 μM). Cell viability was determined using quantitative calorimetric MTT assay and live/dead assay using immunofluorescence imaging. Toll-like receptor (TLR)-3 and -4 agonists induced inflammatory responses in microglia leading to increased nitric oxide (NO) generation as determined by the Greiss reagent. Intracellular calcium was determined by live fluorescence microscopy using a calcium fluorescent probe. Peroxide levels were measured as an indicator of oxidative stress. CRAC channels proteins (STIM1 & ORAI1), phosphoactive stress kinase JNK1/2, iNOS and expression was determined by immunoblotting assays. NFκB, NFAT and CREB transcription factors activation was measured by phosphorylation and nuclear translocation. […] The functional activity of the CRAC channels was evaluated by the effect on intracellular calcium accumulation in BV2 cells. […]
# Fluorescence-based A neuron cell line (Neuro-2A, N-2A) was either cultured alone or in co-culture with microglial BV2 cells. […]
compound,measurement,value
"Cc1nc2cc(C)c(-c3cnc(NC(=O)c4c(F)ccc(F)c4F)s3)cc2o1 [Compound D, N-(5-(2,5-dimethylbenzo[d]oxazol-6-yl)thiazol-2-yl)-2,3,6-trifluorobenzamide]",LPS activated calcium accumulation,blunts LPS activated calcium accumulation
